Patent US9796674B2, “Benzyl urea derivatives for activating TGF-beta signaling” (THE BOARD OF TRUSTEES OF THE LELAND STANFORD JUNIOR …, priority 2013, dated 2017)
Entries after “also recorded” stand apart in the source; their conditions may differ.

Legend:
[1] = system: CYPs 1A2, 2B6, 2C9, 2C19, 2D6, 3A4; assay: CYP inhibition in human liver microsomes; type: in vitro ADME; conditions: 1 and 10 μM, significant = >30% reduction in activity
Source text: CYP Inhibition: SRI-011381 was screened for CYP inhibition, an indicator of potential drug interactions. […] Thus, this compound is unlikely to cause clinically relevant interactions due to effects on co-administered drugs metabolized by these hepatic enzymes.
Drug Interactions (GYP inhibition): GYPs are major enzymes involved in drug metabolism and this assay is used to screen the inhibitory potential of test compounds on in vitro CYP activity, and help predict potential drug interactions due to inhibition of metabolism of one drug by another. This assay was performed by incubating test compounds with human liver microsomes and model CYP substrates (i.e., phenacetin (CYP1A2), bupropion (CYP2B6), diclofenac (CYP2C9), mephenytoin (CYP2C19), bufuralol (CYP2D6), testosterone (CYP3A4), and midazolam (CYP3A4)). Control incubations containing compounds known to inhibit specific CYPs were also included and incubated in the same manner as the test compounds (i.e., furafylline (CYP1A2), thioTEPA (CYP2B6), sulfaphenazole (CYP2C9), tranylcypromine (CYP2C19), quinidine (CYP2D6), and ketoconazole (CYP3A4)). The data is expressed as ‘% of control’, where the controls consist of the model substrates incubated with microsomes (no test compounds or inhibitors).

[2] = system: female FVB mice; assay: Dose escalation and 14-day MTD study in female FVB mice; type: in vivo; conditions: for hematology parameters / survival: repeat dose study; for clinical chemistry: all treatment groups; for single-dose level at which all animals survived to 48 h: female, FVB, mouse, in vivo; for survival: high dose 75 mg/kg
Experimental: In Vivo Range Finding Toxicity Studies in Mice and Rats: Dose escalation and 14-day MTD study of SRI-011381 and SRI-011382 in female FVB mice: The objectives of this study were to determine the maximum tolerated dose (MTD) and a no observable adverse effect level (NOAEL) in female FVB mice following a daily oral dose administration for 14 consecutive days. An initial dose escalation was performed with intraperitoneal (ip), oral (po), and intravenous (iv) dose routes for a single-dose MTD of SRI-011381 and SRI-011382.
Subsequently, three dose levels (10, 30, and 75 mg/kg) and a vehicle control group were used in the 14-day oral dose administration to determine the MTD and NOAEL based on changes in bodyweight, clinical observations, serum chemistry, hematology and gross organ physiology in 5 female mice per treatment group.
The objectives of this study were to determine maximum tolerated dose (MTD) and a no observable adverse effect level (NOAEL) in female FVB mice following a daily oral dose administration for 14 consecutive days. After a dose escalation single dose study with doses up to 400 mg/kg, three dose levels were selected for the repeat dose study, 10, 30 and 75 mg/kg, administered […]. The MTD is the maximum dose administered that results in less than 10% body weight loss compared to controls and no other dose limiting adverse effects (e.g. clinical pathology).

[3] = PAMPA double sink permeability assay; type: in vitro ADME; conditions: pH 7.4, 6.2, 5.0, read-out: sum of the permeability coefficients (Pe)
Experimental: Permeability Assays: PAMPA screens, both for absorption from the gut and through blood brain barrier, were used as a first tier screen for this program. SRI-011381 was evaluated in the double sink assay format and the sum of the permeability coefficients at three pH values (7.4, 6.2, 5.0) was calculated (Pe) to be 781×10^−6 cm/s, which is consistent with an orally available compound.
Permeability PAMPA: The PAMPA assay was used to predict oral bioavailability of compounds. The PAMPA determines the permeability of compounds across a biological membrane using a synthetic lipid membrane and detection by UV absorbance. […] The PAMPA-BBB assay was performed, to predict permeability to the blood brain barrier, as an aqueous assay and as a co-solvent assay. In this assay the composition of the lipid membrane included brain-derived lipids, mimicking the BBB membrane.

[4] = system: primary rat hepatocytes; assay: Cytotoxicity in primary rat hepatocytes; type: cell-based; conditions: 20 h
Experimental: In Vitro Cytotoxicity: The cytotoxicity of SRI-011381 was determined in primary rat hepatocytes and in VERO cells.
Rat hepatocytes were isolated by collagenase perfusion and allowed to form a monolayer overnight. The test compounds were added to the cells in 5 concentrations up to 250 μM. Cells were incubated with the test article for 20 h and then toxicity determined by the MTT cytotoxicity screen. Toxicity was evaluated against the vehicle control (DMSO) and a positive control, amitriptylin, was included with each experiment.

[5] = system: hippocampal neurons; assay: Aβ-induced neuritic dystrophy in primary hippocampal neurons; type: cell-based, mouse; conditions: for average numbers of dystrophic neurites per neuron: 21-22 DIV
Experimental: Primary hippocampal neurons isolated from E16 CF1 embryos were aged for 6-7 days or 21-22 days, then challenged with 5 μM oligomeric Aβ in the presence or absence of compounds, and assayed for neurotoxicity (cell survival as above) or neuritic dystrophy, respectively. For quantification of neuritic dystrophy, fixed cells were immune-stained with a MAP-2 monoclonal antibody to label dendrites.
Primary hippocampal neurons were isolated from E16 CF1 embryos. Twenty-four-well culture plates were coated with 10 μg/ml poly-L-lysine. Cells were seeded overnight at a density of 30,000 cells/well in DMEM/F-12 medium supplemented with 10% FBS and penicillin/streptomycin, and subsequently maintained in Neurobasal medium containing 2% B27 supplement. Cells were aged for 6-7 days or 21-22 days, then challenged with 5 μM Aβ in the presence or absence of compounds, and assayed for neurotoxicity or neuritic dystrophy, respectively. Cells were treated for 72 h for neurotoxicity assay and 48 h for neuritic dystrophy assay. At the end of treatment, an equal volume of 4% PFA was added, plates incubated at room temperature for 15 min and then washed three times with DPBS. Cells were kept in the last wash of DPBS at 4° C. until being counted or stained.
For quantification of neuritic dystrophy, fixed cells were immunostained with a MAP-2 monoclonal antibody (Sigma-Aldrich). […] MAP2 positive dendrites were observed under an inverted fluorescence microscope (Olympus). […] To quantify neurite curvature, an established method was modified for assessment of neurite curvature. Neurite tracks were digitized and approximated by a series of connected line segments using ImageJ (NIH). The angle of each segment was determined using a Sigmaplot macro, and the results were averaged to give the ‘mean differential curvature’. This parameter reflects the degree of neurite curvature with an increasing value indicating increased curvature. Neurite counting and quantification were performed in randomly selected fields (5 fields/well). All quantitative assessments were done by investigators blinded with respect to treatment conditions.

## O=C(NC1CCCCC1)N(Cc1ccccc1)CC1CCNCC1 [SRI-011381, 1-Benzyl-3-cyclohexyl-1-(piperidin-4-ylmethyl)urea]
[1]
  CYP inhibition: did not inhibit any CYP activity significantly
[2]; 10 mg/kg
  hematology parameters: no significant differences relative to controls
[2]; 30 mg/kg, 14 days
  absolute WBCs: significantly decreased
[2]; 30 mg/kg
  hematology parameters: minor changes in WBCs only
[2]; 75 mg/kg (high dose), 14 days
  hematology parameters (RBCs, hematocrit, hemoglobin): reductions in red blood cells (RBCs), hematocrit and hemoglobin; also recorded: RBCs, hematocrit and hemoglobin were all significantly reduced; also recorded: significantly reduced hematocrit, hemoglobin, RBCs, and WBCs
[2]; 75 mg/kg, 14 days
  clinical signs: hunched posture, hypoactivity and ruffled fur
  neutrophils (% and absolute): increased
  reticulocytes: significantly elevated
[2]; 10, 30, 75 mg/kg, 14 days, relative to controls
  body weight or body weight change: no significant differences in body weight or body weight change
[2]; 30 and 75 mg/kg, 14 days
  lymphocytes (% and absolute): decreased
[2]; 14 days
  clinical chemistry: no significant changes in clinical chemistry
[2]; ip
  single-dose level at which all animals survived to 48 h: up to 100 mg/kg
[2]; iv
  single-dose level at which all animals survived to 48 h: ≤ 15 mg/kg
[2]; po
  single-dose level at which all animals survived to 48 h: ≤ 200 mg/kg
[2]
  survival: survived to the scheduled sacrifice on Day 15
[2]; two lower dose groups (10, 30 mg/kg), 14 days
  clinical observations: appeared normal
[3]
  Papp: 781 ×10⁻⁶ cm/s
[4]; rat hepatocytes, MTT
  LD50: greater than 250 μM
[5]; 5 μM Aβ, 48 h
  average numbers of dystrophic neurites per neuron: markedly reduced

## O=C(NC1CCCCC1)N(C/C=C/c1ccc(F)cc1)CC1CCNCC1 [SRI-011382]
[2]; 30 mg/kg
  hematology parameters: reduced hematocrit, hemoglobin, RBCs, and WBCs
[2]; 75 mg/kg, 14 days
  clinical signs: hunched posture, hypoactivity and ruffled fur
[2]; 14 days
  clinical chemistry: no significant changes
[2]
  survival: lethality to the entire treatment group
[4]; rat, 50 μM
  cytotoxicity in rat hepatocytes: cytotoxic at 50 μM
[5]
  Aβ-induced increase in neurite curvature (mean differential curvature): prevented
[5]; 3 μM compound, 5 μM Aβ, 48 h
  Aβ-induced tortuosity: markedly reduced
[5]; 5 μM Aβ, 48 h
  average numbers of dystrophic neurites per neuron: markedly reduced
